Data as given in patent publication US12240854B2, “TRAF 6 inhibitors” (Helmholtz Zentrum München - Deutsches Forschungszentrum für …, priority 2018, dated 2025).
“Also recorded” adds a separate entry of the source.

Target: T1, TRAF6WTStrepII-Ubc13FH interaction (Homo sapiens, UniProt Q9Y4K3)
T1 construct: RING-Zincfinger1 (RZ1) domain (residues 50-159) of human TRAF6 wildtype; made in house; host or cells: E. coli BL21 codon plus RIPL
T1 sequence (Q9Y4K3 with tags, fused parts or gaps): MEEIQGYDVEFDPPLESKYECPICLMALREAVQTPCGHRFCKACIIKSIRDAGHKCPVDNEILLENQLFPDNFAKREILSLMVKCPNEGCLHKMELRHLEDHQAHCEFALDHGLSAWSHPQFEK
Assay: ALPHAScreen TRAF6-Ubc13 interaction assay
Format: binding
Details: not given
Description: In order to identify small molecules that specifically target the RZ1 domain of TRAF6 and thereby prevent its binding to Ubc13, the ALPHAScreen technology (PerkinElmer) was chosen to detect TRAF6WTStrepII-Ubc13FH interaction in High-Throughput-Screenings as well as Structure Activity Relationship (SAR) analysis.
For performance of an automated ALPHAScreen assay, all following components were pre-diluted in ALPHAScreen buffer (1×PBS, 0.5% BSA, 0.01% Tween-20). First, the TRAF6 protein (end concentration 100 nM, 30 μL volume) was added to 384-well-opti-plates involving the MultiFlo dispensing system (BioTek) followed by transfer of the compounds via the Sciclone G3 transfer station (PerkinElmer). After addition of Ubc13FH (end concentration 75 nM, 10 μL volume) with the MultiFlo system and incubation for one hour at room temperature, both beads (Strep-Tactin Alpha Donor beads and Nickel-Chelate acceptor beads; end concentrations 4 μg each, 10 μL volume each) were mixed and added using the MultiFlo system in subdued light. Read-out of the plates occurred after another hour of incubation at room temperature. Statistical parameters including the coefficient of variation, Z′ factor and signal window were calculated to determine the quality of the HTS campaign. To evaluate the efficacy of the compounds, ALPHAScreen units of compound-treated samples were referred to DMSO control treated samples. Thereby, the TRAF6D57K mutant served as the control for minimum signal and was included on every plate of the screening. Compounds that inhibited TRAF6WTStrepII-Ubc13FH by more than 25% were considered as actives. After elimination of ALPHAScreen frequent hitter compounds and His-tag frequent hitters (Schorpp, K., I. Rothenaigner, E. Salmina, et al., Identification of Small-Molecule Frequent Hitters from AlphaScreen High-Throughput Screens. J Biomol Screen, 2014. 19(5): p. 715-26), 178 compounds were defined as primary hits and were subsequently tested in five-point serial dilution assays (2.5-40 μM) in TRAF6WTStrepII-Ubc13FH ALPHAScreen experiments. Only compounds with dose-dependent effects on TRAF6WTStrepII-Ubc13FH (n=27) were taken for further research. For analog testing, all compounds were analyzed in ten-point titration (0.2-100 μM) in TRAF6WTStrepII-Ubc13FH ALPHAScreen experiments. In parallel, the compounds were tested in the ALPHAScreen TruHits Kit (PerkinElmer) to rule out unspecific interference with the ALPHAScreen technology.

Compound | inhibition of TRAF6-Ubc13 interaction in ALPHAScreen (in words)
Cc1nn(-c2ccc3nnc(C)n3n2)c(C)c1CCC(=O)N1CCN(c2ccccc2)CC1 [Example C25, 3-(3,5-dimethyl-1-(3-methyl-[1,2,4]triazolo[4,3-b]pyridazin-6-yl)-1H-pyrazol-4-yl)-1-(4-phenylpiperazin-1-yl)propan-1-one] | promising hit; also recorded: best results in in-vitro and cell-based assays

Same assay, conditions: TRAF6 100 nM, Ubc13FH 75 nM; class symbols; read-out: IC50 Alphascreen (inhibition of TRAF6-UBC13 interaction)

IC50 | Compound
≤ 30 µM | Cc1nn(-c2ccc3nnc(C(F)(F)F)n3n2)c(C)c1CCC(=O)N1CCN(Cc2cc(F)cc(C#N)c2)CC1 [Example 181]
≤ 10 µM | Cc1nn(-c2ccc3nnc(C)n3n2)c(C)c1CCC(=O)N1CCN(Cc2ccc(C#N)cc2F)CC1 [Example 182]
≤ 3 µM | Cc1nn(-c2ccc3nnc(C(F)(F)F)n3n2)c(C)c1CCC(=O)N1CCN(Cc2cc(C#N)ccc2Cl)CC1 [Example 183]
≤ 10 µM | Cc1nn(-c2ccc3nnc(C)n3n2)c(C)c1CCC(=O)N1CCN(Cc2cccc(C#N)c2Cl)CC1 [Example 184]
≤ 3 µM | Cc1nn(-c2ccc3nnc(C)n3n2)c(C)c1CCC(=O)N1CCN(Cc2cccc(C#N)c2C)CC1 [Example 185]
≤ 10 µM | Cc1nn(-c2ccc3nnc(C(F)(F)F)n3n2)c(C)c1CCC(=O)N1CCN(Cc2cccc(C#N)c2C)CC1 [Example 186]
≤ 10 µM | Cc1nn(-c2ccc3nnc(C(F)(F)F)n3n2)c(C)c1CCC(=O)N1CCN(Cc2cccc(C#N)c2Cl)CC1 [Example 187]
≤ 30 µM | Cc1nn(-c2ccc3nnc(C)n3n2)c(C)c1CCC(=O)N1CCN(Cc2ccc(C#N)cc2Cl)CC1 [Example 188]
≤ 30 µM | Cc1nn(-c2ccc3nnc(C(F)(F)F)n3n2)c(C)c1CCC(=O)N1CCN(Cc2ccc(C#N)cc2Cl)CC1 [Example 189]
≤ 3 µM | Cc1nn(-c2ccc3nnc(C(F)(F)F)n3n2)c(C)c1CCC(=O)N1CCN(Cc2ccc(C#N)cc2F)CC1 [Example 190]
≤ 10 µM | Cc1nn(-c2ccc3nnc(C)n3n2)c(C)c1CCC(=O)N1CCN(Cc2cc(C#N)ccc2Cl)CC1 [Example 191]

Target: T2, TRAF6-Ubc13 binding in HEK293T cells (Homo sapiens, UniProt Q9Y4K3)
T2 construct: RING-Zincfinger1 (RZ1) domain (residues 50-159) of human TRAF6 wildtype; expressed in transfected cells; host or cells: HEK 293T
T2 sequence (Q9Y4K3 50-159): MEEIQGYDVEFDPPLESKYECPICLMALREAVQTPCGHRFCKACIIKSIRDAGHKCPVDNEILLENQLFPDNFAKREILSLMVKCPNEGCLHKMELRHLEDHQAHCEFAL
Assay: Co-immunoprecipitation of HA-TRAF6 and Ubc13 in HEK 293T cells
Format: cell-based
Details: not given
Experimental: To study the interaction of TRAF6 and Ubc13 in cells, 1×10^6 293T cells were seeded and after 18 hours cells were transfected with 1 μg pEF-HA empty or pEF-HA-TRAF6 RZ1 plasmid using the X-tremeGENE HP DNA transfection reagent (Roche). 6 hours upon transfection, cells were treated with compound or DMSO. After 42 hours further incubation, cells were harvested in Co-IP lysis buffer and HA-TRAF6 was immunoprecipitated with anti-HA affinity matrix (Roche). Binding of Ubc13 to TRAF6 was examined in Western Blot analysis.

Compound | interaction of endogenous Ubc13 with HA-tagged TRAF6 (co-immunoprecipitation)
Cc1nn(-c2ccc3nnc(C)n3n2)c(C)c1CCC(=O)N1CCN(Cc2ccccc2)CC1 [HZM06-1, 1-(4-benzylpiperazin-1-yl)-3-(3,5-dimethyl-1-(3-methyl-[1,2,4]triazolo[4,3-b]pyridazin-6-yl)-1H-pyrazol-4-yl)propan-1-one] | also active in cells
COc1cccc(CN2CCN(C(=O)CCc3c(C)nn(-c4ccc5nnc(C)n5n4)c3C)CC2)c1 [HZM06-2, 1-(4-(3-methoxybenzyl)piperazin-1-yl)-3-(3,5-dimethyl-1-(3-methyl-[1,2,4]triazolo[4,3-b]pyridazin-6-yl)-1H-pyrazol-4-yl)propan-1-one] | also active in cells
Cc1nn(-c2ccc3nnc(C)n3n2)c(C)c1CCC(=O)N1CCN(Cc2ccc(F)cc2)CC1 [HZM06-3, 1-(4-(4-fluorobenzyl)piperazin-1-yl)-3-(3,5-dimethyl-1-(3-methyl-[1,2,4]triazolo[4,3-b]pyridazin-6-yl)-1H-pyrazol-4-yl)propan-1-one] | also active in cells
Cc1nn(-c2ccc3nnc(C)n3n2)c(C)c1CCC(=O)N1CCC(c2ccccc2)CC1 [HZM06-6, 3-(3,5-dimethyl-1-(3-methyl-[1,2,4]triazolo[4,3-b]pyridazin-6-yl)-1H-pyrazol-4-yl)-1-(4-phenylpiperidin-1-yl)propan-1-one] | also active in cells
Cc1nn(-c2ccc3nnc(C)n3n2)c(C)c1CCC(=O)N1CCC(c2ccccn2)CC1 [HZM06-7, 3-(3,5-dimethyl-1-(3-methyl-[1,2,4]triazolo[4,3-b]pyridazin-6-yl)-1H-pyrazol-4-yl)-1-(4-(pyridin-2-yl)piperidin-1-yl)propan-1-one] | also active in cells; also recorded: most active analogs

Same assay, conditions: listed as HZM06-07

Compound | interaction of endogenous Ubc13 with HA-tagged TRAF6 (co-immunoprecipitation)
Cc1nn(-c2ccc3nnc(C)n3n2)c(C)c1CCC(=O)N1CCC(c2ccccn2)CC1 [HZM06-7, 3-(3,5-dimethyl-1-(3-methyl-[1,2,4]triazolo[4,3-b]pyridazin-6-yl)-1H-pyrazol-4-yl)-1-(4-(pyridin-2-yl)piperidin-1-yl)propan-1-one] | demonstrated inhibition of TRAF6-Ubc13 binding
